Patent publication US20070149580A1, “USE OF PEROXISOME PROLIFERATOR ACTIVATED RECEPTOR DELTA AGONISTS FOR THE TREATMENT OF MS AND OTHER DEMYELINATING DISEASES” (AVENTIS PHARMACEUTICALS INC., priority 2004, published 2007)
pEC50: −log10 of the molar value.

Experiments:
[1] = system: PPAR delta pathway in cultured rat oligodendrocytes; test: Quantitative PCR of PPAR delta pathway transcriptional markers (ADRP mRNA) in cultured rat oligodendrocytes; assay type: cell-based; conditions: FIG. 4B
Description: • 1. Primary rat oligodendrocyte progenitor cells are obtained from the neocortex of newborn (postnatal days 2-3) rats or mice and are enriched, after removal of microglia, by mechanical separation from the astrocytic monolayer using a modification of the technique originally described by McCarthy and de Vellis (1980). • 2. Remove the meninges from neonatal rat brain and mechanically dissociate tissue. Plate cells on T75 flasks and feed cells with DMEM/F12+10% FBS. • 3. Collect oligodendrocytes growing on the astrocyte bed layer by shaking-off method fourteen days after the original prep date. Centrifuge the suspension and resuspend the cell pellet in serum free media (SFM; DMEM combined with 25 μg/ml transferring, 30 nM triiodothyronine, 20 nM hydrocortisone, 20 nM progesterone, 10 nM biotin, 1× trace elements, 30 nM selenium, 1 μg/ml putrescine, 0.1% BSA, 5 U/ml PenStrep, 10 μg/ml insulin) supplemented with the following growth factors: Platelet derived growth factor-AA (PDGF) and fibroblast growth factor-2 (FGF). • 4. Plate the cells on PDL-coated dishes and incubate at 37° C. with 6-7% CO2. • 5. Media components are replaced every 48 hr to keep the cells in a progenitor state. Progenitor Cell Passaging to Increase Cell Numbers for Screening Assays: • 1. […]
• 1. […] PPAR delta pathway member transcript expression is quantitated using Sybr Green PCR Master Mix. • 4. […]

human PPAR alpha = biological target: T1, human PPAR alpha (Homo sapiens, UniProt Q07869); test: Cellular PPAR alpha GAL4/luciferase reporter assay (HEK reporter cell line); assay type: cell-based
T1 construct: human PPAR alpha receptor (amino acids S167-Y468); expressed in transfected cells; host or cells: HEK cells, stably transfected (pcDNA3, CMV promoter)
T1 sequence (Q07869 167-468): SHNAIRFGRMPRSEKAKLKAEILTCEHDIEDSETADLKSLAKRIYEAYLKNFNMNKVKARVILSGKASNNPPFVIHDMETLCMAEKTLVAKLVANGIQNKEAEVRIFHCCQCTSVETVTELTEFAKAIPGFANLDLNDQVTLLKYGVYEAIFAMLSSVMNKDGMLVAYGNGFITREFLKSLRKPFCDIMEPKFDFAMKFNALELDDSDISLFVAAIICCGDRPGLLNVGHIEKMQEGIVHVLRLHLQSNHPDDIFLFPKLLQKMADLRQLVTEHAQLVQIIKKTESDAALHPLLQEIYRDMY
Description: The potency of substances which bind to human PPAR alpha and activate it in an agonistic manner is analyzed using a stably transfected HEK cell line (HEK=human embryo kidney) which is referred to here as PPAR alpha reporter cell line. It contains two genetic elements, a luciferase reporter element (pdeltaM-GAL4-Luc-Zeo) and a PPAR alpha fusion protein (GR-GAL4-humanPPAR alpha-LBD) which mediates expression of the luciferase reporter element depending on a PPAR alpha ligand. The stably and constitutively expressed fusion protein GR-GAL4-humanPPAR alpha-LBD binds in the cell nucleus of the PPAR alpha reporter cell line via the GAL4 protein portion to the GAL4 DNA binding motifs 5′-upstream of the luciferase reporter element which is stably integrated in the genome of the cell line. […] PPAR alpha ligands bind and activate the PPAR alpha fusion protein and thereby stimulate the expression of the luciferase reporter gene.
The finished PPAR alpha reporter cell line which contains a luciferase reporter element and constitutively expresses the PPAR alpha fusion protein (GR-GAL4-human PPAR alpha-LBD) was isolated by selection with zeocin (0.5 mg/ml) and G418 (0.5 mg/ml).

human PPAR delta = biological target: T2, human PPAR delta (Homo sapiens, UniProt Q03181); test: cell-based
T2 sequence (Q03181 139-441): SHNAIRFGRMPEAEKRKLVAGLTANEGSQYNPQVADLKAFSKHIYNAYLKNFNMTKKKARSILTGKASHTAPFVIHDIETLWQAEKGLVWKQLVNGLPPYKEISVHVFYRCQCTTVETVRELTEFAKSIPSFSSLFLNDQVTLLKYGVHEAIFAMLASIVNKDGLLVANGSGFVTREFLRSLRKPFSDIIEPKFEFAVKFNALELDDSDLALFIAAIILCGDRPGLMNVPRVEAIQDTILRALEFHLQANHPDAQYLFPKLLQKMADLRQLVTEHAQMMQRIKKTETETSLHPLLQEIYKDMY

| Compound | ADRP mRNA [1] | pEC50 (human PPAR alpha) | pEC50 (human PPAR delta) |
| --- | --- | --- | --- |
| Cc1cc(SCc2sc(-c3ccc(C(F)(F)F)cc3)nc2C)ccc1OCC(=O)O [Compound 1] | upregulated |  |  |
| CCCc1c(OCCCOc2ccc(OCC(=O)O)cc2)ccc(C(C)=O)c1O [Compound 2] |  | 5.96 | 7.41 |
